Source: patent publication US9738634B2, “Heterocyclic amide compound and herbicide” (SYNGENTA PARTICIPATIONS AG, priority 2013, dated 2017)

Key:
Assay type in all cases: in vivo
Conditions in all cases: treatment dosage 320 g/ha
barnyard grass [1] = test: Test Example 1: weedkilling efficacy, preemergent weed treatment in the submerged state; A: barnyard grass
Outline: (§1)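 Alluvial soil in Wagner pots flooded to 4 cm; barnyard grass, bulrush and oval-leafed pondweed seeds sown, then 2.5-leaf rice seedlings transplanted. Same day, emulsified compound diluted in water to set g/ha dosages and applied to water surface; greenhouse 25–30 °C, effect scored by criteria after 3 weeks.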

bulrush [2] = test: Test Example 1: weedkilling efficacy, preemergent weed treatment in the submerged state; B: bulrush
Outline: as §1

oval-leafed pondweed [3] = test: Test Example 1: weedkilling efficacy, preemergent weed treatment in the submerged state; C: oval-leafed pondweed
Outline: as §1

transplanted rice = test: Test Example 1: preemergent weed treatment in the submerged state, effect on crop; a: transplanted rice
Outline: as §1

barnyard grass [4] = test: Test Example 2: weedkilling efficacy, growth period weed treatment in the submerged state; A: barnyard grass
Outline: (§2)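 First, alluvial soil in pots is flooded to 4 cm and mixed seed is sown. Next, plants grow in a greenhouse at 25 to 30° C until the 1-2 leaf stage. Then diluted emulsion is applied onto the water surface at the given g/ha rate, and injury is assessed after 3 weeks.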

bulrush [5] = test: Test Example 2: weedkilling efficacy, growth period weed treatment in the submerged state; B: bulrush
Outline: as §2

oval-leafed pondweed [6] = test: Test Example 2: weedkilling efficacy, growth period weed treatment in the submerged state; C: oval-leafed pondweed
Outline: as §2

crabgrass [7] = test: Test Example 3: weedkilling efficacy through soil treatment; D: crabgrass
Outline: (§3)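 Crop and weed responses were judged three weeks after a uniform surface spray of the water-diluted emulsion at the given g/ha rate. Seeds sat beneath about 1.5 cm of sterilized diluvial soil, and boxes stood in a greenhouse at 25 to 30° C.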

green foxtail [8] = test: Test Example 3: weedkilling efficacy through soil treatment; E: green foxtail
Outline: as §3

barnyard grass [9] = test: Test Example 3: weedkilling efficacy through soil treatment; F: barnyard grass
Outline: as §3

wild oat [10] = test: Test Example 3: weedkilling efficacy through soil treatment; G: wild oat
Outline: as §3

black-grass [11] = test: Test Example 3: weedkilling efficacy through soil treatment; H: black-grass
Outline: as §3

Italian ryegrass [12] = test: Test Example 3: weedkilling efficacy through soil treatment; I: Italian ryegrass
Outline: as §3

common wind-grass [13] = test: Test Example 3: weedkilling efficacy through soil treatment; J: common wind-grass
Outline: as §3

Indian mallow [14] = test: Test Example 3: weedkilling efficacy through soil treatment; K: Indian mallow
Outline: as §3

redroot pigweed [15] = test: Test Example 3: weedkilling efficacy through soil treatment; L: redroot pigweed
Outline: as §3

fig-leafed goosefoot [16] = test: Test Example 3: weedkilling efficacy through soil treatment; M: fig-leafed goosefoot
Outline: as §3

chickweed [17] = test: Test Example 3: weedkilling efficacy through soil treatment; N: chickweed
Outline: as §3

catchweed [18] = test: Test Example 3: weedkilling efficacy through soil treatment; O: catchweed
Outline: as §3

birds-eye speedwell = test: Test Example 3: weedkilling efficacy through soil treatment; p: birds-eye speedwell
Outline: as §3

directly sown rice [19] = test: Test Example 3: soil treatment, effect on crop; b: directly sown rice
Outline: as §3

corn [20] = test: Test Example 3: soil treatment, effect on crop; c: corn
Outline: as §3

soybean [21] = test: Test Example 3: soil treatment, effect on crop; d: soybean
Outline: as §3

wheat [22] = test: Test Example 3: soil treatment, effect on crop; e: wheat
Outline: as §3

beet [23] = test: Test Example 3: soil treatment, effect on crop; f: beet
Outline: as §3

rapeseed [24] = test: Test Example 3: soil treatment, effect on crop; g: rapeseed
Outline: as §3

crabgrass [25] = test: Test Example 4: weedkilling efficacy by foliar treatment; D: crabgrass
Outline: (§4)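 Seeds are spot-sown into sterilized diluvial soil and covered with about 1.5 cm of soil. After 14 days' greenhouse growth at 25 to 30° C, plants are sprayed on stems and leaves with diluted emulsion at the stated g/ha rate, then scored at 3 weeks.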

green foxtail [26] = test: Test Example 4: weedkilling efficacy by foliar treatment; E: green foxtail
Outline: as §4

barnyard grass [27] = test: Test Example 4: weedkilling efficacy by foliar treatment; F: barnyard grass
Outline: as §4

wild oat [28] = test: Test Example 4: weedkilling efficacy by foliar treatment; G: wild oat
Outline: as §4

black-grass [29] = test: Test Example 4: weedkilling efficacy by foliar treatment; H: black-grass
Outline: as §4

Italian ryegrass [30] = test: Test Example 4: weedkilling efficacy by foliar treatment; I: Italian ryegrass
Outline: as §4

common wind-grass [31] = test: Test Example 4: weedkilling efficacy by foliar treatment; J: common wind-grass
Outline: as §4

Indian mallow [32] = test: Test Example 4: weedkilling efficacy by foliar treatment; K: Indian mallow
Outline: as §4

redroot pigweed [33] = test: Test Example 4: weedkilling efficacy by foliar treatment; L: redroot pigweed
Outline: as §4

fig-leafed goosefoot [34] = test: Test Example 4: weedkilling efficacy by foliar treatment; M: fig-leafed goosefoot
Outline: as §4

chickweed [35] = test: Test Example 4: weedkilling efficacy by foliar treatment; N: chickweed
Outline: as §4

catchweed [36] = test: Test Example 4: weedkilling efficacy by foliar treatment; O: catchweed
Outline: as §4

directly sown rice [37] = test: Test Example 4: foliar treatment, effect on crop; b: directly sown rice
Outline: as §4

corn [38] = test: Test Example 4: foliar treatment, effect on crop; c: corn
Outline: as §4

soybean [39] = test: Test Example 4: foliar treatment, effect on crop; d: soybean
Outline: as §4

wheat [40] = test: Test Example 4: foliar treatment, effect on crop; e: wheat
Outline: as §4

beet [41] = test: Test Example 4: foliar treatment, effect on crop; f: beet
Outline: as §4

rapeseed [42] = test: Test Example 4: foliar treatment, effect on crop; g: rapeseed
Outline: as §4

Compound: CC1=C(c2ccccc2)C(=O)N(C(C)(C)C(=O)Nc2ccc(F)cn2)CO1 [B-2-26]
- A (barnyard grass) weedkilling efficacy grade (barnyard grass [1]): 5 (weed kill ratio 90% or more, (practically complete withering))
- B (bulrush) weedkilling efficacy grade (bulrush [2]): 5 (weed kill ratio 90% or more, (practically complete withering))
- C (oval-leafed pondweed) weedkilling efficacy grade (oval-leafed pondweed [3]): 5 (weed kill ratio 90% or more, (practically complete withering))
- a (transplanted rice) effect on crop grade (transplanted rice): 0 (weed kill ratio 5% or less (practically no effect))
- A (barnyard grass) weedkilling efficacy grade (barnyard grass [4]): 5 (weed kill ratio 90% or more, (practically complete withering))
- B (bulrush) weedkilling efficacy grade (bulrush [5]): 5 (weed kill ratio 90% or more, (practically complete withering))
- C (oval-leafed pondweed) weedkilling efficacy grade (oval-leafed pondweed [6]): 5 (weed kill ratio 90% or more, (practically complete withering))
- D (crabgrass) weedkilling efficacy grade (crabgrass [7]): 5 (weed kill ratio 90% or more, (practically complete withering))
- E (green foxtail) weedkilling efficacy grade (green foxtail [8]): 5 (weed kill ratio 90% or more, (practically complete withering))
- F (barnyard grass) weedkilling efficacy grade (barnyard grass [9]): 5 (weed kill ratio 90% or more, (practically complete withering))
- G (wild oat) weedkilling efficacy grade (wild oat [10]): 1 (weed kill ratio 5% or more, less than 20%)
- H (black-grass) weedkilling efficacy grade (black-grass [11]): 5 (weed kill ratio 90% or more, (practically complete withering))
- I (Italian ryegrass) weedkilling efficacy grade (Italian ryegrass [12]): 5 (weed kill ratio 90% or more, (practically complete withering))
- J (common wind-grass) weedkilling efficacy grade (common wind-grass [13]): 5 (weed kill ratio 90% or more, (practically complete withering))
- K (Indian mallow) weedkilling efficacy grade (Indian mallow [14]): 0 (weed kill ratio 5% or less (practically no effect))
- L (redroot pigweed) weedkilling efficacy grade (redroot pigweed [15]): 4 (weed kill ratio 70% or more, less than 90%)
- M (fig-leafed goosefoot) weedkilling efficacy grade (fig-leafed goosefoot [16]): 4 (weed kill ratio 70% or more, less than 90%)
- N (chickweed) weedkilling efficacy grade (chickweed [17]): 3 (weed kill ratio 40% or more, less than 70%)
- O (catchweed) weedkilling efficacy grade (catchweed [18]): 2 (weed kill ratio 20% or more, less than 40%)
- P (birds-eye speedwell) weedkilling efficacy grade (birds-eye speedwell): 0 (weed kill ratio 5% or less (practically no effect))
- b (directly sown rice) effect on crop grade (directly sown rice [19]): 2 (weed kill ratio 20% or more, less than 40%)
- c (corn) effect on crop grade (corn [20]): 0 (weed kill ratio 5% or less (practically no effect))
- d (soybean) effect on crop grade (soybean [21]): 0 (weed kill ratio 5% or less (practically no effect))
- e (wheat) effect on crop grade (wheat [22]): 0 (weed kill ratio 5% or less (practically no effect))
- f (beet) effect on crop grade (beet [23]): 0 (weed kill ratio 5% or less (practically no effect))
- g (rapeseed) effect on crop grade (rapeseed [24]): 0 (weed kill ratio 5% or less (practically no effect))
- D (crabgrass) weedkilling efficacy grade (crabgrass [25]): 3 (weed kill ratio 40% or more, less than 70%)
- E (green foxtail) weedkilling efficacy grade (green foxtail [26]): 4 (weed kill ratio 70% or more, less than 90%)
- F (barnyard grass) weedkilling efficacy grade (barnyard grass [27]): 3 (weed kill ratio 40% or more, less than 70%)
- G (wild oat) weedkilling efficacy grade (wild oat [28]): 3 (weed kill ratio 40% or more, less than 70%)
- H (black-grass) weedkilling efficacy grade (black-grass [29]): 4 (weed kill ratio 70% or more, less than 90%)
- I (Italian ryegrass) weedkilling efficacy grade (Italian ryegrass [30]): 3 (weed kill ratio 40% or more, less than 70%)
- J (common wind-grass) weedkilling efficacy grade (common wind-grass [31]): 5 (weed kill ratio 90% or more, (practically complete withering))
- K (Indian mallow) weedkilling efficacy grade (Indian mallow [32]): 3 (weed kill ratio 40% or more, less than 70%)
- L (redroot pigweed) weedkilling efficacy grade (redroot pigweed [33]): 4 (weed kill ratio 70% or more, less than 90%)
- M (fig-leafed goosefoot) weedkilling efficacy grade (fig-leafed goosefoot [34]): 4 (weed kill ratio 70% or more, less than 90%)
- N (chickweed) weedkilling efficacy grade (chickweed [35]): 3 (weed kill ratio 40% or more, less than 70%)
- O (catchweed) weedkilling efficacy grade (catchweed [36]): 3 (weed kill ratio 40% or more, less than 70%)
- b (directly sown rice) effect on crop grade (directly sown rice [37]): 1 (weed kill ratio 5% or more, less than 20%)
- c (corn) effect on crop grade (corn [38]): 3 (weed kill ratio 40% or more, less than 70%)
- d (soybean) effect on crop grade (soybean [39]): 4 (weed kill ratio 70% or more, less than 90%)
- e (wheat) effect on crop grade (wheat [40]): 0 (weed kill ratio 5% or less (practically no effect))
- f (beet) effect on crop grade (beet [41]): 4 (weed kill ratio 70% or more, less than 90%)
- g (rapeseed) effect on crop grade (rapeseed [42]): 1 (weed kill ratio 5% or more, less than 20%)
